Assay results as given in paper PMC9448818 (Translational Psychiatry, 2022).
Where “and” joins values, the source holds several entries; their conditions need not be identical. Equal entries are not always repeated.

What was measured:
[1] = test system: CYP2D6; conditions: cited from earlier work
[2] = test system: patients with MDD; test: MADRS response, remission and symptom improvement (CAN-BIND-1 trial); type: in vivo, human; parameters: key to Estimate for Week, percentage symptom improvement (MADRS), mixed effects model / Estimate for CYP2C19 IM+PM, percentage symptom improvement (MADRS), mixed effects model / Estimate for CYP2C19 RM+UM, percentage symptom improvement (MADRS), mixed effects model / Estimate for CYP2D6 IM+PM, percentage symptom improvement (MADRS), mixed effects model: % points of improvement = (baseline MADRS − MADRS)/baseline; conditions: for share of the effect of CYP2C19 IM+PM phenotype on symptom improvement mediated by ESCadj serum concentrations: ESC-Only, bootstrap mediation analysis; for cumulative difference in symptom improvement from baseline between CYP2C19 NMs and IMs: at trial end (Week 16)
Description: (§1) The 16-week study protocol consisted of two phases following screening and baseline visits. […] Blood samples were collected on Weeks 2, 10, and 16 to measure medication levels and on Week 4 for pharmacogenetic analyses. The methods used for the quantification of serum levels of drug and metabolite concentrations is described in the Supplementary Methods.
Depressive symptoms were assessed using MADRS every 2 weeks from Week 0 to 16. The primary outcomes for response were: (1) response status (responder versus non-responder) on the last visit of Phases I and II (i.e., Week 8 and 16), and (2) the percentage of symptom improvement across visits during Phases I and II. Remission status (remitter versus non-remitter) at the end of Phases I and II was a secondary outcome for a response. These response outcomes are described in the Supplementary Methods.
(§2) We assessed the dichotomous measures of response (responder vs. non-responder and remitter vs. non-remitter) and side effects (present vs. absent) for the last timepoint in Phases I and II using logistic regression models with total MADRS score at baseline included as a covariate. Given the availability of biweekly MADRS scores and multiple time points for TSES, continuous measures of response (percentage of symptom improvement) and side effects (intensity of each category of side effects) were assessed using linear mixed-effects models that included interactions of CYP2C19 and CYP2D6 metabolizer groups with timepoint, and recruitment site and individual as random effects variables.
(§3) Using Spearman’s rank correlation, we explored whether measures of unadjusted serum concentrations were associated with symptom improvement and the intensity of side effects during Phase I and II.
Description of measures of response outcome
Response status signifies the classification of patients as “responder” or “non-responder” if MADRS reduction of ≥50% or <50% from baseline was reached, respectively. For remission status, patients are classified as “remitter” if they achieved a MADRS total score of 10 or less; otherwise, they are classified as “non-remitter”. The percentage of symptom improvement was calculated by subtracting the total MADRS score from the baseline MADRS score and then dividing by the baseline MADRS score for each of the eight time points. These measures of response were selected, since continuous measures, such as percentage symptom improvement, capture more information and have higher power, whereas dichotomous measures, such as response status, has a particular clinical relevance since it is associated with MDD prognosis.
Post-hoc mediation analyses […]
strength of the association between the CYP2C19 or CYP2D6 metabolizer groups (predictor variable) and measures of treatment response or side effect (outcome variable) must be attenuated or rendered non- […]
mediation, respectively.1,2 R package “Mediation”3 and “lavaan”4 was used for continuous and binary variables, respectively, to perform nonparametric bootstrap analyses with 5000 iterations to calculate the estimate of the […]
1Baron RM, Kenny DA. The moderator–mediator variable distinction in social psychological research: Conceptual, strategic, and statistical considerations.
2MacKinnon DP, Lockwood CM, Hoffman JM, West SG, Sheets V. A Comparison of Methods to Test Mediation and Other Intervening Variable Effects.
3Tingley D, Yamamoto T, Hirose K, Keele L, Imai K, Trinh M et al. mediation: Causal Mediation Analysis. […]
project.org/package=mediation (accessed 7 Apr2021).
4Savalei V, Rosseel Y. Computational Options for Standard Errors and Test Statistics with Incomplete Normal and Nonnormal

[3] = Dose-adjusted serum concentrations of drug and metabolite (LC-MS/MS) by CYP2C19 and CYP2D6 metabolizer group; type: in vivo, human; conditions: for B, ESCadj concentrations in serum, CYP2C19 RM+UM / B, ESCadj concentrations in serum, CYP2D6 IM+PM / B, ESCadj concentrations in serum, CYP2C19 IM+PM: vs NM
Description: as §1
Serum concentrations were adjusted for dosage (i.e., ng/mL/mg). Sampling time (i.e., hours since the last dose) was entered as a covariate in the regression models to account for when the medication was taken.
The CYP2C19 metabolizer group was not included as a fixed effect covariate, as CYP2C19 is not known to be involved in the metabolism of ARI. […]
Collection of blood samples and quantification of serum drug and metabolite concentrations Participants self-reported the time at which the last dosage of the study medication was taken during the collection of the blood samples. […]
major metabolites, (S-DCT) and (DHA), were performed at the CAMH Clinical Laboratory using LC-MS/MS technology. Briefly, a mix of deuterated internal standards (Cerilliant) was added to 100 µL of each serum specimen, calibrator (Cerilliant) and quality control (MassCheck Antidepressants/Neuroleptics, Level 1 and Level 2). Proteins were precipitated with 300 µL of 9:1 Acetonitrile:Methanol (Sigma-Aldrich) followed by 5 min centrifugation at 9000 rpm. 25 µL of each supernatant was diluted with 200 µL of 0.1% Formic acid (Sigma-Aldrich) and then analyzed on the LC-MS/MS platform consisting of ThermoFisher TSQ Quantum Ultra mass spectrometer coupled with ThermoFisher Surveyor LC pump and HTC PAL autosampler fitted with a Kinetex F5 2.6 µm, 100 x 2.1 mm column (Phenomenex). Six minute gradient elution with 0.1% Formic Acid (mobile phase A) and Acetonitrile (mobile phase B) was applied. Collision energies ranged from 14 to […]
calibration curve ranging from 10 to 1000 ng/mL for each analyte.
Vendor nominal means for quality controls were used to assess the assay accuracy for each of the four analytes […]
precision was considered acceptable assay performance.
Data was analyzed with ThemoFisher XCalibur software.

[4] = test system: patients with MDD; test: Toronto side effects scale (TSES), treatment-related side effects; type: in vivo, human; conditions: Week 16
Description: The Toronto side effects scale (TSES), administered on Weeks 2, 4, 10, 12, and 16, is a clinical instrument designed to assess the frequency and severity of treatment-related side effects on 5-point Likert scales. The “intensity” score is derived by multiplying the frequency and severity of each side effect. The items assessed can be broadly categorized into the central nervous system (CNS), gastrointestinal (GI), and sexual side effects, as well as weight gain (Table S1)[28]. The primary outcomes for side effects were both dichotomous and continuous: (1) absence or presence of side effects within the four categories on the last visit of Phases I and II and (2) the intensity of each category of side effect across visits during each Phase.
as §2, §3

[5] = vs NM, Phase II, by treatment arm

- share of the effect of CYP2C19 IM+PM phenotype on symptom improvement mediated by ESCadj serum concentrations ([2]; Phase II): 45%
- share of the effect of CYP2C19 IM+PM phenotype on symptom improvement mediated by ESCadj serum concentrations ([2]; Phase II, listed as ESC-Only): about 45%
- higher mean ESCadj concentrations, CYP2C19 IM + PMs compared to NMs ([3]; Week 2 (Phase I)): 42.9%
- difference in ESCadj concentrations between CYP2C19 NMs and IM + PMs ([3]; Week 10, ESC + ARI): 39.6%
- higher levels of ESCadj in serum, CYP2D6 IM + PMs compared to NMs ([3]; Week 10, ESC-Only): 58.9%
- difference in ESCadj concentrations between CYP2C19 NMs and IM + PMs ([3]; Week 16, ESC + ARI): 58.2%
- higher levels of ESCadj in serum, CYP2D6 IM + PMs compared to NMs ([3]; Week 16, ESC-Only): 59.2%
- ESC levels in CYP2D6 IM+PMs, ESC+ARI compared to ESC-Only ([3]; Week 16, ARI coadministration): lower
- ESCadj serum levels in CYP2D6 NMs, ESC + ARI compared to ESC-Only ([3]; Weeks 10 and 16, ARI coadministration): significantly higher
- B, ESCadj concentrations in serum, CYP2C19 RM+UM ([3]; Week 2 (Phase I)): -0.05
- B, ESCadj concentrations in serum, CYP2D6 IM+PM ([3]; Week 2 (Phase I)): 0.31
- B, ESCadj concentrations in serum, CYP2C19 IM+PM ([3]; Week 2 (Phase I), linear regression, dose-adjusted): 0.59
- B, ESCadj concentrations in serum, CYP2C19 IM+PM ([3]; Week 10, ESC+ARI arm): 0.69
- B, ESCadj concentrations in serum, CYP2C19 RM+UM ([3]; Week 10, ESC+ARI arm): 0.01
- B, ESCadj concentrations in serum, CYP2D6 IM+PM ([3]; Week 10, ESC+ARI arm): -0.37
- B, ESCadj concentrations in serum, CYP2C19 IM+PM ([3]; Week 10, ESC-Only arm): 0.65
- B, ESCadj concentrations in serum, CYP2C19 RM+UM ([3]; Week 10, ESC-Only arm): 0.14
- B, ESCadj concentrations in serum, CYP2D6 IM+PM ([3]; Week 10, ESC-Only arm): 0.71 and 0.65
- B, ESCadj concentrations in serum, CYP2C19 IM+PM ([3]; Week 16, ESC+ARI arm): 0.77
- B, ESCadj concentrations in serum, CYP2C19 RM+UM ([3]; Week 16, ESC+ARI arm): 0.17
- B, ESCadj concentrations in serum, CYP2D6 IM+PM ([3]; Week 16, ESC+ARI arm): -0.32
- B, ESCadj concentrations in serum, CYP2C19 IM+PM ([3]; Week 16, ESC-Only arm): 0.66
- B, ESCadj concentrations in serum, CYP2C19 RM+UM ([3]; Week 16, ESC-Only arm): -0.10
Structure (SMILES): CN(C)CCC[C@@]1(c2ccc(F)cc2)OCc2cc(C#N)ccc21 [ESC, Escitalopram]
- inhibition of CYP2D6 in vitro [1]: weak inhibitors
- Estimate for Week, percentage symptom improvement (MADRS), mixed effects model ([2]; Phase I (Weeks 0–8)): 4.14
- Estimate for Week, percentage symptom improvement (MADRS), mixed effects model ([2]; Phase II (Weeks 8–16), by treatment arm): 1.47
- cumulative difference in symptom improvement from baseline between CYP2C19 NMs and IMs [2]: 11.5%
- cumulative difference in symptom improvement from baseline between CYP2C19 NMs and IMs ([2]; listed as ESC-Only): 11.52%
- overall response rate ([2]; end of Phase I (Week 8), MADRS reduction ≥50% from baseline, 83/178): 46.62%
- overall response rate ([2]; end of Phase II (Week 16), responders continued ESC, non-responders augmented with ARI, 122/178): 68.54%
- Estimate for CYP2C19 IM+PM*Week, percentage symptom improvement (MADRS), mixed effects model ([2]; vs NM, Phase I): -1.48
- Estimate for CYP2C19 IM+PM, percentage symptom improvement (MADRS), mixed effects model ([2]; vs NM, Phase I): 3.27
- Estimate for CYP2C19 RM+UM*Week, percentage symptom improvement (MADRS), mixed effects model ([2]; vs NM, Phase I): -0.73
- Estimate for CYP2C19 RM+UM, percentage symptom improvement (MADRS), mixed effects model ([2]; vs NM, Phase I): 3.74
- Estimate for CYP2D6 IM+PM*Week, percentage symptom improvement (MADRS), mixed effects model ([2]; vs NM, Phase I): 0.31
- Estimate for CYP2D6 IM+PM, percentage symptom improvement (MADRS), mixed effects model ([2]; vs NM, Phase I): 3.13
- Estimate for CYP2C19 IM+PM, percentage symptom improvement (MADRS), mixed effects model [2, 5]: 26.15
- Estimate for CYP2C19 RM+UM*Week, percentage symptom improvement (MADRS), mixed effects model [2, 5]: -1.04
- Estimate for CYP2C19 RM+UM, percentage symptom improvement (MADRS), mixed effects model [2, 5]: 14.10
- Estimate for CYP2D6 IM+PM*Week, percentage symptom improvement (MADRS), mixed effects model [2, 5]: -0.41
- Estimate for CYP2D6 IM+PM, percentage symptom improvement (MADRS), mixed effects model [2, 5]: 1.19
- Estimate (B) for CYP2C19 IM+PM*Week, average percentage change in MADRS from baseline, mixed effects model ([2]; vs NM, Phase II, by treatment arm, listed as ESC-Only): -2.34
- average percentage change in MADRS from baseline lower in CYP2C19 IMs than in NMs ([2]; with every two-week assessment, Phase II, simple effects analysis): 2.54%
- odds of reporting a CNS side effect, CYP2D6 NMs compared to IM + PMs (factor) [4]: 7.69
- odds of reporting decreased sleepiness, CYP2D6 NMs compared to IM + PMs [4]: 25.53
- odds of reporting sweating, CYP2D6 NMs compared to IM + PMs ([4]; listed as ESC-Only): 29.21
